pEC50: −log10 of the molar value.
What was measured:
[1] = test system: Human alphaherpesvirus 1; assay: Antiviral activity against HSV-1 determined by inhibition of viral cytopathic effect (CPE) in rhabdomyosarcoma (RD) cell line; assay type: functional, organism-based, herpes simplex virus; settings: Human alphaherpesvirus 1, RD
[2] = test system: Influenza A virus; assay: Ratio of maximum nontoxic concentration (MNTC) against Influenza virus A to that of effective concentration (EC50); assay type: functional
[3] = test system: Influenza A virus; assay: Antiviral activity against influenza A virus determined in chicken embryo cells (CEC) by plaque reduction assay method.; assay type: functional, organism-based
[4] = test system: Human alphaherpesvirus 1; assay: Ratio of maximum nontoxic concentration (MNTC) against HSV-1 to that of effective concentration (EC50); assay type: functional, herpes simplex virus

Row | SMILES | pEC50 [1] | Ratio [2] | pEC50 [3] | Ratio [4]
1 | C=C(C)[C@@H]1CC[C@]2(C(N)=O)CC[C@@]3(C)C(CC[C@@H]4[C@@]5(C)CCC(=O)C(C)(C)C5CC[C@]43C)C12 (some centres not stated) | 3.66 | 1333.3 | 6.15 | <1
2 | C=C(C)[C@@H]1CC[C@]2(C(=O)N[C@@H](CC(C)C)C(=O)OC)CC[C@@]3(C)C(CC[C@@H]4[C@@]5(C)CCC(=O)C(C)(C)C5CC[C@]43C)C12 (some centres not stated) | 2.86 | 1.2 | 4.14 | <1
3 | C=C(C)[C@@H]1CC[C@]2(C(=O)N[C@@H](CCSC)C(=O)OC)CC[C@@]3(C)C(CC[C@@H]4[C@@]5(C)CCC(=O)C(C)(C)C5CC[C@]43C)C12 (some centres not stated) | < 3.18 | 11.9 | 4.85 | <1
4 | C=C(C)[C@@H]1CC[C@]2(N=C=O)CC[C@@]3(C)C(CC[C@@H]4[C@@]5(C)CCC(=O)C(C)(C)C5CC[C@]43C)C12 (some centres not stated) | < 3.65 | <1 | < 3.65 | <1
5 | C=C(C)[C@@H]1CCC2(NC(=O)N[C@H](CCSC)C(=O)OC)CC[C@@]3(C)C(CC[C@@H]4[C@@]5(C)CC/C(=N\O)C(C)(C)C5CC[C@]43C)C12 (some centres not stated) | 6.22 | 35.2 | 5.64 | 67.6
6 | C=C(C)[C@@H]1CC[C@]2(C(=O)NN)CC[C@@]3(C)C(CC[C@@H]4[C@@]5(C)CC/C(=N\O)C(C)(C)C5CC[C@]43C)C12 (some centres not stated) | < 4.29 | 25.2 | 5.70 | <1
7 | C=C(C)[C@@H]1CC[C@]2(C(=O)O)CC[C@]3(C)[C@H](CC[C@@H]4[C@@]5(C)CC[C@H](O)C(C)(C)[C@@H]5CC[C@]43C)[C@@H]12 [BETULINIC ACID] | 5.09 | <1 | < 3.66 | 53.3
8 | C=C(C)[C@@H]1CCC2(NC(=O)N[C@@H](C(=O)OC)C(C)C)CC[C@@]3(C)C(CC[C@@H]4[C@@]5(C)CCC(=O)C(C)(C)C5CC[C@]43C)C12 (some centres not stated) | 6.70 | <1 | < 4.07 | 454
9 | C=C(C)[C@@H]1CC[C@]2(C(=O)NCCCCCCCCCCCCCCCCCC)CC[C@@]3(C)C(CC[C@@H]4[C@@]5(C)CCC(=O)C(C)(C)C5CC[C@]43C)C12 (some centres not stated) | 5.85 | 4.6 | 4.26 | 177
10 | C=C(C)[C@@H]1CC[C@]2(C(=O)N[C@H](C(=O)OC)C(C)C)CC[C@@]3(C)C(CC[C@@H]4[C@@]5(C)CCC(=O)C(C)(C)C5CC[C@]43C)C12 (some centres not stated) | 3.85 | 3.4 | 4.88 | 2.5
11 | C=C(C)[C@@H]1CC[C@]2(C(=O)NN)CC[C@@]3(C)C(CC[C@@H]4[C@@]5(C)CCC(=O)C(C)(C)C5CC[C@]43C)C12 (some centres not stated) | 5.00 |  |  | 21.3
12 | C=C(C)[C@@H]1CCC2(NC(=O)N[C@H](CCSC)C(=O)OC)CC[C@@]3(C)C(CC[C@@H]4[C@@]5(C)CCC(=O)C(C)(C)C5CC[C@]43C)C12 (some centres not stated) | 5.66 | 3 | 4.57 | 298.5
13 | C=C(C)[C@@H]1CC[C@]2(C(=O)NCCO)CC[C@@]3(C)C(CC[C@@H]4[C@@]5(C)CCC(=O)C(C)(C)C5CC[C@]43C)C12 (some centres not stated) | < 3.42 | <1 | < 3.12 | <1
14 | C=C(C)[C@@H]1CCC2(NC(=O)N[C@H](CC(C)C)C(=O)OC)CC[C@@]3(C)C(CC[C@@H]4[C@@]5(C)CCC(=O)C(C)(C)C5CC[C@]43C)C12 (some centres not stated) | 4.84 | >67 | 5.30 | 11.5
15 | C=C(C)[C@@H]1CC[C@]2(C(=O)N[C@@H](C)C(=O)OC)CC[C@@]3(C)C(CC[C@@H]4[C@@]5(C)CCC(=O)C(C)(C)C5CC[C@]43C)C12 (some centres not stated) | 3.18 | <1 | < 3.63 | 1.4
16 | C=C(C)[C@@H]1CC[C@]2(C(=O)O)CC[C@]3(C)[C@H](CC[C@@H]4[C@@]5(C)CCC(=O)C(C)(C)[C@@H]5CC[C@]43C)[C@@H]12 [BETUNOLIC ACID] | 5.60 | 9.6 | 5.24 | 43.9
